Experimental data as given in patent publication US11767310B2, “Nicotinamide RIPK1 inhibitors” (AbbVie Inc., priority 2021, dated 2023).
Marks after values point to notes of the source that are not given here.

How the values were obtained:
U937 cells = assay: U937 TNF/zVAD Cytotoxicity Cell Assay; type: cell-based; conditions: Homo sapiens, U-937; TNFα 10 ng/mL + Z-VAD FMK 20 μM, 16-20 hours; read-out: U937 TNF/zVAD Induced Cytotoxicity IC50
Description: Compounds were tested for their ability to prevent TNF induced necroptosis in U937 cells. Treatment with TNF and the caspase inhibitor zVAD-FMK results in the activation and phosphorylation of RIPK1 and subsequent phosphorylation of RIPK3 and MLKL (Mixed Lineage Kinase Domain Like Pseudokinase), leading to induction of necroptotic cell death that is measured as a reduction in cell viability. Similar U937 assay protocols have been previously described; see, e.g., Harris et al., ACS Med. Chem. Letters (2013) 4:1238-1243 and Supplementary Information.
Test compounds were solvated in dimethyl sulfoxide (DMSO) and 3-fold serially diluted from 10 uM to 0.0005 uM with technical duplicates into an empty 384 well plate. U937 cells were resuspended at a concentration of 500,000 cells/mL in fresh RPMI (Roswell Park Memorial Institute) 1640 growth medium containing 10% heat inactivated fetal bovine serum (FB1S) and seeded into a 384 well plate containing compounds and incubated for 1 hour at 37° C. Following incubation, the cells were challenged with TNFα (final concentration of 10 ng/mL) and Z-VAD FMK (N-Benzyloxycarbonyl-Val-Ala-Asp(O-Me) fluoromethyl ketone; final concentration of 20 μM) for 16-20 hours at 37° C. Following the incubation with TNFα/Z-VAD, cells were lysed with Cell Titer-Glo and incubated for 5-10 minutes. The plate was then read on an Envision plate reader. Data was normalized and analyzed with Studies from Dotmatics.

[1] = Prodrug bioconversion in intestinal S9 cell fractions; type: in vitro ADME
Description: (§1) Phosphatase enzymes are […] expressed with unique tissue specific isoforms and are key catalysts in the conversion of phosphate-containing prodrugs. To determine if exemplary phosphate prodrug compounds of the invention are enzymatically converted to the parent molecule across relevant species, the prodrug compounds were incubated with intestinal S9 cell fractions obtained from mouse, rat, dog, monkey, and human.
[…] Incubations were conducted in the absence and presence of 1 mM sodium orthovanadate, a phosphatase inhibitor. Prodrug depletion and parent formation were monitored by LC-MS/MS and normalized to internal standard as the analyte peak area ratio.

[2] = as above; type: in vitro ADME; conditions: 0.25 mg/mL
Description: as §1
Phosphate prodrugs were incubated (1 μM) for up to 2 hours in Tris-Cl buffer (pH 7.4) containing 3 mM magnesium chloride, intestinal S9 protein ([…] (ms, rat, hu, Table F) from mouse, rat, dog, monkey or human. Incubations were conducted in the absence and presence of 1 mM sodium orthovanadate, a phosphatase inhibitor. Prodrug depletion and parent formation were monitored by LC-MS/MS and normalized to internal standard as the analyte peak area ratio.

[3] = Human, 0.01 mg/mL S9 protein, Table F
[4] = Human, 0.25 mg/mL S9 protein, Table F
[5] = Human, 0.25 mg/mL, Experiment 1
[6] = Human, 0.25 mg/mL, Experiment 2
[7] = Human, 0.25 mg/mL, Experiment 3
[8] = Human, 0.25 mg/mL, Mean of 3 experiments
[9] = Mouse, 0.01 mg/mL S9 protein, Table F
[10] = Mouse, 0.25 mg/mL S9 protein, Table F
[11] = Mouse, 0.25 mg/mL, Experiment 1
[12] = Mouse, 0.25 mg/mL, Experiment 2
[13] = Mouse, 0.25 mg/mL, Experiment 3
[14] = Mouse, 0.25 mg/mL, Mean of 3 experiments
[15] = Rat, 0.01 mg/mL S9 protein, Table F
[16] = Rat, 0.25 mg/mL S9 protein, Table F
[17] = Rat, 0.25 mg/mL, Mean of 3 experiments

Compound: Cc1ncc(C(=O)NC[C@@H](O)Cc2ccccc2)cc1C#Cc1cncs1 [Example 16, (S)-N-(2-hydroxy-3-phenylpropyl)-6-methyl-5-(thiazol-5-ylethynyl)nicotinamide]
- IC50 (U937 cells): 2580 nM

Compound: CN(C[C@H](Cc1ccccc1)OP(=O)(O)O)C(=O)c1cncc(C#Cc2cnn(C)n2)c1 [Example 23, (S)-1-(N-methyl-5-((2-methyl-2H-1,2,3-triazol-4-yl)ethynyl)nicotinamido)-3-phenylpropan-2-yl dihydrogen phosphate]
- Clint (prodrug disappearance) [1, 3]: 1180.2 μL/min/mg intestinal S9 protein
- Clint (prodrug disappearance) [1, 4]: 243.4 μL/min/mg intestinal S9 protein
- Clint (prodrug disappearance) [1, 5]: 199 μL/min/mg intestinal S9 protein
- Clint (prodrug disappearance) [1, 6]: 241 μL/min/mg intestinal S9 protein
- Clint (prodrug disappearance) [1, 7]: 203 μL/min/mg intestinal S9 protein
- Clint (prodrug disappearance) [1, 8]: 214 μL/min/mg intestinal S9 protein
- Clint (prodrug disappearance) [1, 9]: <137** μL/min/mg intestinal S9 protein
- Clint (prodrug disappearance) [1, 10]: 23.3 μL/min/mg intestinal S9 protein
- Clint (prodrug disappearance) [1, 11]: 26.2 μL/min/mg intestinal S9 protein
- Clint (prodrug disappearance) [1, 12]: 34.3 μL/min/mg intestinal S9 protein
- Clint (prodrug disappearance) [1, 13]: 31.3 μL/min/mg intestinal S9 protein
- Clint (prodrug disappearance) [1, 14]: 30.6 μL/min/mg intestinal S9 protein
- Clint (prodrug disappearance) [1, 15]: <137** μL/min/mg intestinal S9 protein
- Clint (prodrug disappearance) [1, 16]: 36.7 μL/min/mg intestinal S9 protein
- Clint (prodrug disappearance) ([1]; Rat, 0.25 mg/mL, Experiment 1): 29.1 μL/min/mg intestinal S9 protein
- Clint (prodrug disappearance) ([1]; Rat, 0.25 mg/mL, Experiment 2): 33.8 μL/min/mg intestinal S9 protein
- Clint (prodrug disappearance) ([1]; Rat, 0.25 mg/mL, Experiment 3): 28.2 μL/min/mg intestinal S9 protein
- Clint (prodrug disappearance) [1, 17]: 30.4 μL/min/mg intestinal S9 protein
- Clint (prodrug disappearance) ([2]; Dog, Experiment 1): 354 μL/min/mg intestinal S9 protein
- Clint (prodrug disappearance) ([2]; Dog, Experiment 2): 369 μL/min/mg intestinal S9 protein
- Clint (prodrug disappearance) ([2]; Dog, Experiment 3): 345 μL/min/mg intestinal S9 protein
- Clint (prodrug disappearance) ([2]; Dog, Mean of 3 experiments): 356 μL/min/mg intestinal S9 protein
- Clint (prodrug disappearance) ([2]; Monkey, Experiment 1): 55.4 μL/min/mg intestinal S9 protein
- Clint (prodrug disappearance) ([2]; Monkey, Experiment 2): 47.7 μL/min/mg intestinal S9 protein
- Clint (prodrug disappearance) ([2]; Monkey, Experiment 3): 48.1 μL/min/mg intestinal S9 protein
- Clint (prodrug disappearance) ([2]; Monkey, Mean of 3 experiments): 50.4 μL/min/mg intestinal S9 protein

Compound: CN(C[C@H](Cc1ccccc1)OC(=O)CN)C(=O)c1cncc(C#Cc2cnn(C(F)F)c2)c1 [Example 21, (S)-1-(5-((1-(difluoromethyl)-1H-pyrazol-4-yl)ethynyl)-N-methylnicotinamido)-3-phenylpropan-2-yl 2-aminoacetate, hydrochloric acid]
- Clint (prodrug disappearance) [1, 3]: 815.9 μL/min/mg intestinal S9 protein
- Clint (prodrug disappearance) [1, 4]: 592.9 μL/min/mg intestinal S9 protein
- Clint (prodrug disappearance) [1, 5]: 391 μL/min/mg intestinal S9 protein
- Clint (prodrug disappearance) [1, 6]: 400 μL/min/mg intestinal S9 protein
- Clint (prodrug disappearance) [1, 7]: 355 μL/min/mg intestinal S9 protein
- Clint (prodrug disappearance) [1, 8]: 382 μL/min/mg intestinal S9 protein
- Clint (prodrug disappearance) [1, 9]: 11160 μL/min/mg intestinal S9 protein
- Clint (prodrug disappearance) [1, 10]: >4166.5* μL/min/mg intestinal S9 protein
- Clint (prodrug disappearance) [1, 11]: >480* μL/min/mg intestinal S9 protein
- Clint (prodrug disappearance) [1, 12]: >480* μL/min/mg intestinal S9 protein
- Clint (prodrug disappearance) [1, 13]: >480* μL/min/mg intestinal S9 protein
- Clint (prodrug disappearance) [1, 14]: >480* μL/min/mg intestinal S9 protein
- Clint (prodrug disappearance) [1, 15]: 2599.5 μL/min/mg intestinal S9 protein
- Clint (prodrug disappearance) [1, 16]: 901.6 μL/min/mg intestinal S9 protein
- Clint (prodrug disappearance) ([1]; Rat, 0.25 mg/mL, Experiment 1): 396 μL/min/mg intestinal S9 protein
- Clint (prodrug disappearance) ([1]; Rat, 0.25 mg/mL, Experiment 2): 719 μL/min/mg intestinal S9 protein
- Clint (prodrug disappearance) ([1]; Rat, 0.25 mg/mL, Experiment 3): 750 μL/min/mg intestinal S9 protein
- Clint (prodrug disappearance) [1, 17]: 622 μL/min/mg intestinal S9 protein
- Clint (prodrug disappearance) ([2]; Dog, Experiment 1): 5.62 μL/min/mg intestinal S9 protein
- Clint (prodrug disappearance) ([2]; Dog, Experiment 2): 16.1 μL/min/mg intestinal S9 protein
- Clint (prodrug disappearance) ([2]; Dog, Experiment 3): 14.3 μL/min/mg intestinal S9 protein
- Clint (prodrug disappearance) ([2]; Dog, Mean of 3 experiments): 12.0 μL/min/mg intestinal S9 protein
- Clint (prodrug disappearance) ([2]; Monkey, Experiment 1): 89.6 μL/min/mg intestinal S9 protein
- Clint (prodrug disappearance) ([2]; Monkey, Experiment 2): 91.3 μL/min/mg intestinal S9 protein
- Clint (prodrug disappearance) ([2]; Monkey, Experiment 3): 90.7 μL/min/mg intestinal S9 protein
- Clint (prodrug disappearance) ([2]; Monkey, Mean of 3 experiments): 90.5 μL/min/mg intestinal S9 protein

Compound: Cc1ncc(C(=O)N(C)C[C@@H](O)Cc2ccccc2)cc1C#Cc1cnn(C)c1 [Example 14, (S)-N-(2-hydroxy-3-phenylpropyl)-N,6-dimethyl-5-((1-methyl-1H-pyrazol-4-yl)ethynyl)nicotinamide]
- IC50 (U937 cells): 18 nM

Compound: CN(C[C@H](Cc1ccccc1)OC(=O)CN)C(=O)c1cncc(C#Cc2cnn(C)n2)c1 [Example 25, (S)-1-(N-methyl-5-((2-methyl-2H-1,2,3-triazol-4-yl)ethynyl)nicotinamido)-3-phenylpropan-2-yl 2-aminoacetate, hydrochloric acid]
- Clint (prodrug disappearance) [1, 3]: 378.1 μL/min/mg intestinal S9 protein
- Clint (prodrug disappearance) [1, 4]: 410 μL/min/mg intestinal S9 protein
- Clint (prodrug disappearance) [1, 5]: 272 μL/min/mg intestinal S9 protein
- Clint (prodrug disappearance) [1, 6]: 294 μL/min/mg intestinal S9 protein
- Clint (prodrug disappearance) [1, 7]: 293 μL/min/mg intestinal S9 protein
- Clint (prodrug disappearance) [1, 8]: 286 μL/min/mg intestinal S9 protein
- Clint (prodrug disappearance) [1, 9]: 6821.9 μL/min/mg intestinal S9 protein
- Clint (prodrug disappearance) [1, 10]: >1640.7* μL/min/mg intestinal S9 protein
- Clint (prodrug disappearance) [1, 11]: >480* μL/min/mg intestinal S9 protein
- Clint (prodrug disappearance) [1, 12]: >480* μL/min/mg intestinal S9 protein
- Clint (prodrug disappearance) [1, 13]: >480* μL/min/mg intestinal S9 protein
- Clint (prodrug disappearance) [1, 14]: >480* μL/min/mg intestinal S9 protein
- Clint (prodrug disappearance) [1, 15]: 1087.6 μL/min/mg intestinal S9 protein
- Clint (prodrug disappearance) [1, 16]: 393.8 μL/min/mg intestinal S9 protein
- Clint (prodrug disappearance) ([1]; Rat, 0.25 mg/mL, Experiment 1): 217 μL/min/mg intestinal S9 protein
- Clint (prodrug disappearance) ([1]; Rat, 0.25 mg/mL, Experiment 2): 318 μL/min/mg intestinal S9 protein
- Clint (prodrug disappearance) ([1]; Rat, 0.25 mg/mL, Experiment 3): 299 μL/min/mg intestinal S9 protein
- Clint (prodrug disappearance) [1, 17]: 278 μL/min/mg intestinal S9 protein
- Clint (prodrug disappearance) ([2]; Dog, Experiment 1): 10.2 μL/min/mg intestinal S9 protein
- Clint (prodrug disappearance) ([2]; Dog, Experiment 2): 14.4 μL/min/mg intestinal S9 protein
- Clint (prodrug disappearance) ([2]; Dog, Experiment 3): 11.5 μL/min/mg intestinal S9 protein
- Clint (prodrug disappearance) ([2]; Dog, Mean of 3 experiments): 12.0 μL/min/mg intestinal S9 protein
- Clint (prodrug disappearance) ([2]; Monkey, Experiment 1): 38.1 μL/min/mg intestinal S9 protein
- Clint (prodrug disappearance) ([2]; Monkey, Experiment 2): 49.0 μL/min/mg intestinal S9 protein
- Clint (prodrug disappearance) ([2]; Monkey, Experiment 3): 40.7 μL/min/mg intestinal S9 protein
- Clint (prodrug disappearance) ([2]; Monkey, Mean of 3 experiments): 42.6 μL/min/mg intestinal S9 protein

Compound: CN(C[C@@H](O)Cc1ccccc1)C(=O)c1cncc(C#Cc2cnn(C)c2)c1 [Example 1, (S)-N-(2-hydroxy-3-phenylpropyl)-N-methyl-5-((1-methyl-1H-pyrazol-4-yl)ethynyl)nicotinamide]
- IC50 (U937 cells): 34 nM
